Values after ≈ are worked out from the molar mass of the structure shown.
Key:
[1] = Minimum inhibitory concentration (MIC) of compound expressed as geometric mean of various bacterias.*; type: functional
[2] = system: Salmonella typhimurium; experiment: Compound was tested for the mutagenicity activity in the Salmonella Typhimurium reverse mutation assay (+) - low levels of mutagenicity; type: functional, organism-based; conditions: Salmonella enterica subsp. enterica serovar Typhimurium
[3] = Minimum inhibitory concentration (MIC) of compound expressed as geometric mean of various bacterias.; type: functional
[4] = system: Salmonella typhimurium; experiment: Compound was tested for the mutagenicity activity in the Salmonella Typhimurium reverse mutation assay; +-indicates the levels of mutagenicity as the number of revertant colonies obtained increases 1.5-2 times; type: functional, organism-based; conditions: Salmonella enterica subsp. enterica serovar Typhimurium
[5] = system: Salmonella typhimurium; experiment: Compound was tested for the mutagenicity activity in the Salmonella Typhimurium reverse mutation assay;(+) - low levels of mutagenicity; type: functional, organism-based; conditions: Salmonella enterica subsp. enterica serovar Typhimurium
[6] = system: Salmonella typhimurium; experiment: Compound was tested for the mutagenicity activity in the Salmonella Typhimurium reverse mutation assay; (+) - low levels of mutagenicity; type: functional, organism-based; conditions: Salmonella enterica subsp. enterica serovar Typhimurium
[7] = system: Salmonella typhimurium; experiment: Compound was tested for the mutagenicity activity in the Salmonella Typhimurium reverse mutation assay; ++/+++-indicates the levels of mutagenicity as the number of revertant colonies obtained increases 5/10 times; type: functional, organism-based; conditions: Salmonella enterica subsp. enterica serovar Typhimurium

| Structure (SMILES) | MIC [1] [µM] | also measured |
| --- | --- | --- |
| Cn1c([N+](=O)[O-])cnc1C(O)c1cc(C23C[C@H]4C[C@@H](C2)C[C@@H](C3)C4)ccc1O (some centres undefined) | 2.43 (≈ 0.932 µg/mL) | – |
| Cn1c([N+](=O)[O-])cnc1C(O)c1cc(C2CCCCC2)ccc1O (centres undefined) | – | Mutagenicity [2]: low levels of mutagenicity; MIC [3]: 8.82 µM (≈ 2.92 µg/mL) |
| Cc1ncc([N+](=O)[O-])n1CCO [METRONIDAZOLE] | 1.46 (≈ 0.25 µg/mL) | – |
| COc1cc(C(O)c2ncc([N+](=O)[O-])n2C)c(O)c(C(C)(C)C)c1 (centres undefined) | 28.2 (≈ 9.46 µg/mL) | – |
| Cn1c([N+](=O)[O-])cnc1C(O)c1cccc(C23C[C@H]4C[C@@H](C2)C[C@@H](C3)C4)c1O (some centres undefined) | 4.46 (≈ 1.71 µg/mL) | Mutagenicity [4]: Levels of mutagencity as the number of revertant colonies obtained increases 1.5-2 times |
| Cn1c([N+](=O)[O-])cnc1C(O)c1cc(F)cc(C2C3C[C@H]4C[C@@H](C3)C[C@@H]2C4)c1O (some centres undefined) | 3.97 (≈ 1.59 µg/mL) | Mutagenicity [5]: low levels of mutagenicity |
| Cn1c([N+](=O)[O-])cnc1C(O)c1cccc(C2CCCCC2)c1O (centres undefined) | 4.68 (≈ 1.55 µg/mL) | Mutagenicity [4]: Levels of mutagencity as the number of revertant colonies obtained increases 1.5-2 times |
| COc1cc(C(O)c2ncc([N+](=O)[O-])n2C)c(O)c(C2C3C[C@H]4C[C@@H](C3)C[C@@H]2C4)c1 (some centres undefined) | 4.21 (≈ 1.74 µg/mL) | Mutagenicity [6]: low levels of mutagenicity |
| Cn1c([N+](=O)[O-])cnc1C(O)c1cc(C2C3C[C@H]4C[C@@H](C3)C[C@@H]2C4)ccc1O (some centres undefined) | 1.8 (≈ 0.69 µg/mL) | – |
| Cn1c([N+](=O)[O-])cnc1C(O)c1cccc(C2C3C[C@H]4C[C@@H](C3)C[C@@H]2C4)c1O (some centres undefined) | 3.84 (≈ 1.47 µg/mL) | – |
| Cn1c([N+](=O)[O-])cnc1C(O)c1cc(Cl)cc(C2C3C[C@H]4C[C@@H](C3)C[C@@H]2C4)c1O (some centres undefined) | 6.78 (≈ 2.83 µg/mL) | Mutagenicity [5]: low levels of mutagenicity |
| Cn1c([N+](=O)[O-])cnc1C(O)c1cc(C(C)(C)C)ccc1O (centres undefined) [ABUNIDAZOLE] | 13.1 (≈ 4 µg/mL) | Mutagenicity [7]: ++/+ |
